The values below come from ChEMBL document CHEMBL1137453, “Structure-activity relationship and biological property of cortistatins, anti-angiogenic spongean steroidal alkaloids” (Bioorg Med Chem, 2007).

pIC50: −log10 of the molar value.

One test concerns HUVEC. Briefly: Antiproliferative activity against HUVEC cells by WST-8 colorimetric assay. The format is cell-based. Conditions: Homo sapiens. (Tetrazolium dyes change colour on reduction, which living cells bring about.)
A further test has as its system K562. The test is described as follows: Antiproliferative activity against human K562 cells by WST-8 colorimetric assay. Type of test: functional, cell-based.
Test [1] in a line: Antiproliferative activity against human KB3-1 cells by WST-8 colorimetric assay. Type of test: functional, cell-based. The settings on record: KB 3-1.
Test [2] is described as follows: Antiproliferative activity against mouse Neuro-2A cells by WST-8 colorimetric assay. The format is functional, cell-based. Conditions: N2a.
The test system of the next test is NHDF. The test is described as follows: Antiproliferative activity against NHDF cells by WST-8 colorimetric assay. Type of test: functional, cell-based. The settings on record: Homo sapiens.

In the case of `CN(C)[C@@H]1C=CC2=CC3=CC[C@]4(C)[C@@H](c5ccc6ccncc6c5)CC[C@H]4[C@@]34CC[C@]2(C1)O4` [CORTISTATIN J], the negative logarithm of the IC50 (pIC50) – broadly, the negative decadic logarithm of the IC50, by convention in mol/L – was 8.10 with HUVEC; 5.48 in the test on K562; 5.04 in test [1]; 5.48 in test [2]; 5.62 with NHDF.

With `CC1CN(C)CCC1CCC(C)[C@H]1CC[C@@H]2[C@]1(C)CCC1=CC3=CC[C@@H](N(C)C)C[C@]34CC[C@@]12O4` (stereo not given in full) [CORTISTATIN E], the pIC50 in the test on HUVEC was 6.35; in the test on K562 it was 5.55; in test [1], 5.60; in test [2], 5.72; in the test with NHDF, 5.72.

Regarding `CN(C)[C@H]1C[C@@]23CC[C@@]4(O2)C(=CC3=C[C@@H]1O)CC[C@]1(C)[C@@H](c2ccc3ccncc3c2)CC[C@H]14` [CORTISTATIN L], the pIC50 was 7.64 in the test on HUVEC; 5.37 with K562; 4.85 in test [1]; 5.55 in test [2]; 5.62 in the test on NHDF.

Consider `CN(C)[C@H]1C[C@@]23CC[C@@]4(O2)C(=CC[C@@]2(C)[C@H]4CC(=O)[C@]2(O)c2ccc4ccncc4c2)C=C3[C@@H](O)[C@@H]1O`, for which the pIC50 is 6.82 in the test on HUVEC; less than 3.52 in the test with K562; 4.26 in test [1]; less than 3.52 in test [2]; less than 3.52 with NHDF.

Turning to `CN(C)[C@H]1C[C@@]23CC[C@@]4(O2)C(=CC[C@@]2(C)[C@H]4C[C@H](O)[C@@H]2c2ccc4ccncc4c2)C=C3[C@@H](O)[C@@H]1O`, the pIC50 in the test on HUVEC was 5.96; in the test on K562, 3.70; in test [1] it was 3.92; in test [2] it was 3.80; in the test with NHDF it was less than 3.52.

For the compound `CN(C)[C@@H]1CC=C2C=C3CC[C@]4(C)[C@@H](c5ccc6ccncc6c5)CC[C@H]4[C@@]34CC[C@]2(C1)O4` [CORTISTATIN K], the pIC50 is 7.40 with HUVEC; 5.41 in the test with K562; 4.99 in test [1]; 5.52 in test [2]; 5.60 in the test on NHDF.

Consider `Cc1cnccc1CCC(C)[C@H]1CC[C@@H]2[C@]1(C)CCC1=CC3=CC[C@@H](N(C)C)C[C@]34CC[C@@]12O4` (stereo not given in full) [CORTISTATIN H], for which the pIC50 in the test with HUVEC is 6.46; in the test on K562, 5.57; in test [1] it was 5.64; in test [2], 5.66; in the test with NHDF, 5.57.

In the case of `Cc1cnccc1/C=C/C(C)[C@H]1CC[C@@H]2[C@]1(C)CCC1=CC3=CC[C@@H](N(C)C)C[C@]34CC[C@@]12O4` (stereo not given in full) [CORTISTATIN G], the pIC50 is 6.10 in the test with HUVEC; 5.42 in the test on K562; 5.05 in test [1]; 5.40 in test [2]; 5.54 with NHDF.

`CC1CN(C)CCC1CCC(C)[C@H]1CC[C@@H]2[C@]1(C)CC=C1C=C3C=C[C@@H](N(C)C)C[C@]34CC[C@@]12O4` (stereo not given in full) [CORTISTATIN F]: the pIC50 is 5.72 in the test on HUVEC; 5.40 with K562; 4.97 in test [1]; 5.40 in test [2]; 5.39 with NHDF.
